Results published in ChEMBL document CHEMBL4602605, “Fluoroquinolones structural and medicinal developments (2013-2018): Where are we now?” (Bioorg Med Chem, 2019).
Converted amounts (≈) assume the structure as drawn.

Columns and labels:
Format in all cases: functional
Staphylococcus aureus [1] = test: Antimicrobial activity against Staphylococcus aureus ATCC 29213 by CLSI-based broth microdilution method
Escherichia coli = test: Antimicrobial activity against tolC deficient Escherichia coli KD65 by CLSI-based broth microdilution method
Pseudomonas aeruginosa = test: Antimicrobial activity against Pseudomonas aeruginosa PAO1 by CLSI-based broth microdilution method
Staphylococcus aureus [2] = test: Antimicrobial activity against methicillin-susceptible Staphylococcus aureus ATCC 29213 incubated for 18 to 24 hrs by two-fold serial dilution method
Enterococcus faecium = test: Antimicrobial activity against Enterococcus faecium ATCC 700221 incubated for 18 to 24 hrs by two-fold serial dilution method
[3] = tested on: Staphylococcus epidermidis; test: Antimicrobial activity against methicillin-susceptible Staphylococcus epidermidis ATCC 12228 incubated for 18 to 24 hrs by two-fold serial dilution method
Staphylococcus aureus [4] = test: Antimicrobial activity against methicillin-resistant Staphylococcus aureus ATCC 33591 incubated for 18 to 24 hrs by two-fold serial dilution method
[5] = tested on: Mycobacterium tuberculosis; test: Antimicrobial activity against Mycobacterium tuberculosis H37Rv ATCC 27294 incubated for 7 days by microplate Alamar blue assay; details: H37Rv ATCC 27294, 168 h
[6] = Staphylococcus aureus, ATCC 29213, read-out: MIC
[7] = Escherichia coli, KD65, read-out: MIC

Row | SMILES | MIC (Staphylococcus aureus [1]; [6]) [µg/mL] | MIC (Escherichia coli; [7]) [µg/mL] | MIC (Pseudomonas aeruginosa) [µg/mL] | MIC (Staphylococcus aureus [2]) [µg/mL] | MIC (Enterococcus faecium) [µg/mL] | MIC [3] [µg/mL] | MIC (Staphylococcus aureus [4]) [µg/mL] | MIC [5] [µM] | MIC (Staphylococcus aureus [1]) [µg/mL] | MIC (Escherichia coli) [µg/mL]
1 | O=C(O)c1cn(C2CC2)c2c3c(c(F)cc2c1=O)N1CCCC1CC=C3 (stereo not drawn) | 0.5 (≈ 1.41 µM) | 0.03 (≈ 0.0847 µM) | 1 (≈ 2.82 µM) | – | – | – | – | – | – | –
2 | N[C@@H]1CCN2c3c(F)cc4c(=O)c(C(=O)O)cn(C5CC5)c4c3CC[C@H]12 | 0.03 (≈ 0.0839 µM) | 0.004 (≈ 0.0112 µM) | 0.5 (≈ 1.4 µM) | – | – | – | – | – | – | –
3 | N[C@@H]1CCN2c3c(F)cc4c(=O)c(C(=O)O)cn(C5CC5)c4c3/C=C\CC[C@H]12 | 4 (≈ 10.4 µM) | 0.25 (≈ 0.652 µM) | 32 (≈ 83.5 µM) | – | – | – | – | – | – | –
4 | O=C(O)c1cn(C2CC2)c2c3c(c(F)cc2c1=O)N1CCCC1CN=C3 (stereo not drawn) | 0.25 (≈ 0.703 µM) | 0.25 (≈ 0.703 µM) | 2 (≈ 5.63 µM) | – | – | – | – | – | – | –
5 | N[C@H]1C[C@@H]2CC=Cc3c(c(F)cc4c(=O)c(C(=O)O)cn(C5CC5)c34)N2C1 | ≤ 0.06 | 0.008 (≈ 0.0217 µM) | 0.22 (≈ 0.596 µM) | – | – | – | – | – | – | –
6 | COc1c(N2CCN(CCn3cncn3)CC2)c(F)cc2c(=O)c(C(=O)O)cn(C3CC3)c12 | – | – | – | 4 (≈ 8.76 µM) | > 128 | 4 (≈ 8.76 µM) | 4 (≈ 8.76 µM) | 4.1 (≈ 1.87 µg/mL) | – | –
7 | COc1c(N2CCN(C/C(C)=N/Nc3ccncc3)CC2)c(F)cc2c(=O)c(C(=O)O)cn(C3CC3)c12 | – | – | – | 2 (≈ 3.93 µM) | > 64 | 2 (≈ 3.93 µM) | 2 (≈ 3.93 µM) | 1.78 (≈ 0.905 µg/mL) | – | –
8 | COc1c(N2CCN(C/C(C)=N/NC(=O)c3ccc(F)cc3)CC2)c(F)cc2c(=O)c(C(=O)O)cn(C3CC3)c12 | – | – | – | 0.125 (≈ 0.226 µM) | > 64 | 0.125 (≈ 0.226 µM) | 0.125 (≈ 0.226 µM) | 0.266 (≈ 0.147 µg/mL) | – | –
9 | N[C@@H]1CCN2c3c(F)cc4c(=O)c(C(=O)O)cn(C5CC5)c4c3CCC[C@H]12 | 0.03 (≈ 0.0808 µM) | 0.004 (≈ 0.0108 µM) | 0.125 (≈ 0.337 µM) | – | – | – | – | – | – | –
10 | O=C(O)c1cn(C2CC2)c2c3c(c(F)cc2c1=O)N1CCCC1CNC3 (stereo not drawn) | 0.25 (≈ 0.7 µM) | 0.125 (≈ 0.35 µM) | 16 (≈ 44.8 µM) | – | – | – | – | – | – | –
11 | N[C@H]1C[C@H]2COCc3c(c(F)cc4c(=O)c(C(=O)O)cn(C5CC5)c34)N2C1 | 0.125 (≈ 0.335 µM) | 0.034 (≈ 0.0911 µM) | 0.38 (≈ 1.02 µM) | – | – | – | – | – | – | –
12 | N[C@@H]1CCN2c3c(F)cc4c(=O)c(C(=O)O)cn(C5CC5)c4c3C=C[C@H]12 | 8 (≈ 22.5 µM) | 1 (≈ 2.81 µM) | > 64 | – | – | – | – | – | – | –
13 | COc1c(N2CCN(C/C(C)=N/Nc3ccnc4cc(Cl)ccc34)CC2)c(F)cc2c(=O)c(C(=O)O)cn(C3CC3)c12 | – | – | – | 0.5 (≈ 0.843 µM) | > 128 | 1 (≈ 1.69 µM) | 0.5 (≈ 0.843 µM) | 0.266 (≈ 0.158 µg/mL) | – | –
14 | COc1c(N2CCN(C/C(C)=N/NC(=O)c3ccccc3)CC2)c(F)cc2c(=O)c(C(=O)O)cn(C3CC3)c12 | – | – | – | 0.125 (≈ 0.233 µM) | > 128 | 0.125 (≈ 0.233 µM) | 0.125 (≈ 0.233 µM) | 0.226 (≈ 0.121 µg/mL) | – | –
15 | N[C@@H]1CCN2c3c(F)cc4c(=O)c(C(=O)O)cn(C5CC5)c4c3CNC[C@H]12 | 1 (≈ 2.69 µM) | 0.25 (≈ 0.671 µM) | 16 (≈ 43 µM) | – | – | – | – | – | – | –
16 | CO/N=C1/Cc2c(c(F)cc3c(=O)c(C(=O)O)cn(C4CC4)c23)N2CCCC2C1 (stereo not drawn) | 1 (≈ 2.5 µM) | 0.25 (≈ 0.626 µM) | 64 (≈ 160 µM) | – | – | – | – | – | – | –
17 | O=C(O)c1cn(C2CC2)c2c3c(c(F)cc2c1=O)N1CCCC1C[S+]([O-])C3 (stereo in doubt; 441) | – | – | – | – | – | – | – | – | 4 (≈ 10.2 µM) | 1 (≈ 2.56 µM)
18 | COc1c(N2CCN(C/C(C)=N/NC(=O)c3ccc(Cl)cc3)CC2)c(F)cc2c(=O)c(C(=O)O)cn(C3CC3)c12 | – | – | – | 0.125 (≈ 0.219 µM) | 32 (≈ 56.1 µM) | 0.125 (≈ 0.219 µM) | 0.125 (≈ 0.219 µM) | 0.272 (≈ 0.155 µg/mL) | – | –
19 | N[C@H]1CCN2c3c(F)cc4c(=O)c(C(=O)O)cn(C5CC5)c4c3CNC[C@H]12 | 1 (≈ 2.69 µM) | ≤ 0.06 | 0.5 (≈ 1.34 µM) | – | – | – | – | – | – | –
20 | N[C@H]1C[C@H]2CC=Cc3c(c(F)cc4c(=O)c(C(=O)O)cn(C5CC5)c34)N2C1 | 8 (≈ 21.7 µM) | 16 (≈ 43.3 µM) | 64 (≈ 173 µM) | – | – | – | – | – | – | –
21 | N[C@H]1CCN2c3c(F)cc4c(=O)c(C(=O)O)cn(C5CC5)c4c3COC[C@H]12 | 0.0082 (≈ 0.022 µM) | 0.002 (≈ 0.00536 µM) | 0.25 (≈ 0.67 µM) | – | – | – | – | – | – | –
22 | CC(=O)N1Cc2c(c(F)cc3c(=O)c(C(=O)O)cn(C4CC4)c23)N2CCCC2C1 (stereo not drawn) | 0.082 (≈ 0.205 µM) | 0.2 (≈ 0.501 µM) | > 16 | – | – | – | – | – | – | –
23 | N[C@H]1CCN2c3c(F)cc4c(=O)c(C(=O)O)cn(C5CC5)c4c3CCC[C@H]12 | 0.015 (≈ 0.0404 µM) | 0.004 (≈ 0.0108 µM) | 0.29 (≈ 0.781 µM) | – | – | – | – | – | – | –
24 | COc1c(N2CCN(C/C(C)=N/Nc3ccccc3)CC2)c(F)cc2c(=O)c(C(=O)O)cn(C3CC3)c12 | – | – | – | 0.25 (≈ 0.493 µM) | 64 (≈ 126 µM) | 0.25 (≈ 0.493 µM) | 0.25 (≈ 0.493 µM) | 0.398 (≈ 0.202 µg/mL) | – | –
25 | COc1c(N2CCN(C/C(C)=N/Nc3ccc(C(F)(F)F)cc3)CC2)c(F)cc2c(=O)c(C(=O)O)cn(C3CC3)c12 | – | – | – | 0.125 (≈ 0.217 µM) | 64 (≈ 111 µM) | 0.25 (≈ 0.434 µM) | 0.125 (≈ 0.217 µM) | 0.394 (≈ 0.227 µg/mL) | – | –
26 | COc1ccc(C(=O)N/N=C(\C)CN2CCN(c3c(F)cc4c(=O)c(C(=O)O)cn(C5CC5)c4c3OC)CC2)cc1 | – | – | – | 0.125 (≈ 0.221 µM) | 64 (≈ 113 µM) | 0.125 (≈ 0.221 µM) | 0.25 (≈ 0.442 µM) | 0.214 (≈ 0.121 µg/mL) | – | –
27 | N[C@@H]1C[C@H]2COCc3c(c(F)cc4c(=O)c(C(=O)O)cn(C5CC5)c34)N2C1 | 0.015 (≈ 0.0402 µM) | 0.008 (≈ 0.0214 µM) | 0.25 (≈ 0.67 µM) | – | – | – | – | – | – | –
